Test results: ChEMBL document CHEMBL1914313, “Monosubstituted γ-lactam and conformationally constrained 1,3-diaminopropan-2-ol transition-state isostere inhibitors of β-secretase (BACE)” (Bioorg Med Chem Lett, 2011)

Experiments:
[1] = molecular target: T1, Beta-secretase 1 (Homo sapiens, UniProt P56817); test: Inhibition of BACE1 by HPLC method
[2] = molecular target: T1, Beta-secretase 1; test: Inhibition of BACE1 in human HEK293 cells expressing swedish mutant APP; format: cell-based
[3] = test system: P-glycoprotein; test: Efflux ratio of permeability across basolateral to apical side over apical to basolateral side in human Caco2 cells expressing p-glycoprotein; format: ADME, cell-based; conditions: Caco-2
[4] = molecular target: T1, Beta-secretase 1; test: Ratio of IC50 for BACE1 in human HEK293 cells expressing swedish mutant AP to IC50 for BACE1; format: cell-based

T1 sequence (P56817 whole entry): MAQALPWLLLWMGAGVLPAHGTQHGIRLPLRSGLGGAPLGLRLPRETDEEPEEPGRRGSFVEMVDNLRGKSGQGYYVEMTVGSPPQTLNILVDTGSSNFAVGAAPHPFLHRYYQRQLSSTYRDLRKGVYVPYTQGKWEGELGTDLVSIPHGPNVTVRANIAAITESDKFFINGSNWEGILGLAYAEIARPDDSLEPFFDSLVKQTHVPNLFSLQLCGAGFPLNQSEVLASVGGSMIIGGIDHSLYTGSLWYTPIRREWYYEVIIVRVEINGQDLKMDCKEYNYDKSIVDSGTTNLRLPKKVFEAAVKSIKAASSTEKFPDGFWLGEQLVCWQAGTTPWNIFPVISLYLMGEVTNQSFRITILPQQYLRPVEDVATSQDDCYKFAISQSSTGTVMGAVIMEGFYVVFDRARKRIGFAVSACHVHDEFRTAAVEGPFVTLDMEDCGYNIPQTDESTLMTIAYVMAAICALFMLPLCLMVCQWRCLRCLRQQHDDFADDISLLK

Row | IC50 [1] | IC50 [2] | efflux ratio [3] | Ratio IC50 [4] | Structure (SMILES)
1 | 68 nM | 27 nM | – | – | CCC[C@@H](O)[C@H]1CCN([C@@H](C)C(=O)N[C@@H](Cc2cc(F)cc(F)c2)[C@H](O)CNCc2cccc(OC)c2)C1=O
2 | 96 nM | 1400 nM | – | – | CCCC[C@H]1CCN([C@@H](C)C(=O)N[C@@H](Cc2cc(F)cc(F)c2)[C@H](O)[C@H]2C[C@H](O)CN2)C1=O
3 | – | 330 nM | – | – | CC(C)C[C@H]1CCN([C@@H](C)C(=O)N[C@@H](Cc2cc(F)cc(F)c2)[C@H](O)[C@H]2C[C@@H](Oc3ccccn3)CN2)C1=O
4 | 8.6 nM | 9.5 nM | – | – | CC(=O)N[C@]1(CC(C)C)CCN([C@@H](CCc2ccccc2)C(=O)N[C@@H](Cc2cc(F)cc(F)c2)[C@H](O)[C@H]2Cc3ccccc3CN2)C1=O
5 | 1.5 nM | 1.3 nM | – | – | CCC(C)[C@@]1(NC(C)=O)CCN([C@@H](CCc2ccccc2)C(=O)N[C@@H](Cc2cc(F)cc(F)c2)[C@H](O)[C@H]2C[C@@H](OCc3ccccn3)CN2)C1=O (some centres not stated)
6 | – | 2 nM | > 12 | – | CCCO[C@H]1CN[C@@H]([C@@H](O)[C@H](Cc2cc(F)cc(F)c2)NC(=O)[C@H](CCc2ccccc2)N2CC[C@@](CC(C)C)(NC(C)=O)C2=O)C1
7 | – | 12 nM | – | – | CCC(C)[C@@]1(NC(C)=O)CCN([C@@H](CCc2ccccc2)C(=O)N[C@@H](Cc2cc(F)cc(F)c2)[C@H](O)[C@H]2C[C@@H](OCc3ccccc3)CN2)C1=O (some centres not stated)
8 | 10 nM | 8.9 nM | – | – | CCC(C)[C@@]1(NC(C)=O)CCN([C@@H](CCc2ccccc2)C(=O)N[C@@H](Cc2cc(F)cc(F)c2)[C@H](O)[C@H]2C[C@@H](OCc3ccc(F)cc3)CN2)C1=O (some centres not stated)
9 | 32 nM | 210 nM | – | – | COC[C@H]1CCN([C@@H](CCc2ccccc2)C(=O)N[C@@H](Cc2cc(F)cc(F)c2)[C@H](O)CNCc2cccc(OC)c2)C1=O
10 | 35 nM | 110 nM | 32 | – | CCCO[C@H]1CN[C@@H]([C@@H](O)[C@H](Cc2cc(F)cc(F)c2)NC(=O)[C@H](C)N2CC[C@H](CC(C)C)C2=O)C1
11 | – | 1400 nM | – | > 10 | CCCC[C@H]1CCN([C@@H](CCc2ccccc2)C(=O)N[C@@H](Cc2cc(F)cc(F)c2)[C@H](O)[C@H]2Cc3ccccc3CN2)C1=O
12 | 87 nM | 68 nM | > 17 | – | CCCC[C@H]1CCN([C@@H](C)C(=O)N[C@@H](Cc2cc(F)cc(F)c2)[C@H](O)[C@H]2C[C@@H](OCCC)CN2)C1=O
13 | 31 nM | > 660 nM | – | – | CCC(C)[C@@]1(NC(C)=O)CCN([C@@H](C)C(=O)N[C@@H](Cc2cc(F)cc(F)c2)[C@H](O)[C@H]2C[C@H](O)CN2)C1=O (some centres not stated)
14 | 46 nM | 27 nM | – | – | COc1cccc(CNC[C@@H](O)[C@H](Cc2cc(F)cc(F)c2)NC(=O)[C@H](C)N2CC[C@@](CC3CC3)(NC(C)=O)C2=O)c1
15 | 5.9 nM | 2.5 nM | – | – | CCC(C)[C@@]1(NC(C)=O)CCN([C@@H](CCc2ccccc2)C(=O)N[C@@H](Cc2cc(F)cc(F)c2)[C@H](O)[C@H]2C[C@@H](Oc3cccnc3)CN2)C1=O (some centres not stated)
16 | 54 nM | 110 nM | – | – | CCC(C)[C@@]1(NC(C)=O)CCN([C@@H](CCc2ccccc2)C(=O)N[C@@H](Cc2cc(F)cc(F)c2)[C@H](O)[C@H]2Cc3ccccc3CN2)C1=O (some centres not stated)
17 | 6.5 nM | 29 nM | – | – | CCC(C)[C@@]1(NC(C)=O)CCN([C@@H](CCc2ccccc2)C(=O)N[C@@H](Cc2cc(F)cc(F)c2)[C@H](O)[C@H]2C[C@@H](O)CN2)C1=O (some centres not stated)
18 | 6.1 nM | – | – | – | CCC(C)[C@@]1(NC(C)=O)CCN([C@@H](CCc2ccccc2)C(=O)N[C@@H](Cc2cc(F)cc(F)c2)[C@H](O)CNCc2cccc(OC)c2)C1=O (some centres not stated)
19 | 23 nM | 89 nM | – | – | CCCO[C@H]1CN[C@@H]([C@@H](O)[C@H](Cc2cc(F)cc(F)c2)NC(=O)[C@H](CCc2ccccc2)N2CC[C@H](COC)C2=O)C1
20 | 11 nM | 10 nM | – | – | COc1cccc(CNC[C@@H](O)[C@H](Cc2cc(F)cc(F)c2)NC(=O)[C@H](CCc2ccccc2)N2CC[C@@](CC3CC3)(NC(C)=O)C2=O)c1
21 | 38 nM | 350 nM | – | – | CCCC[C@H]1CCN([C@@H](CCc2ccccc2)C(=O)N[C@@H](Cc2cc(F)cc(F)c2)[C@H](O)CNCc2cccc(OC)c2)C1=O
22 | 34 nM | 270 nM | – | – | CCC(C)[C@@]1(NC(C)=O)CCN([C@@H](CCc2ccccc2)C(=O)N[C@@H](Cc2cc(F)cc(F)c2)[C@H](O)[C@H]2C[C@@H](N)CN2)C1=O (some centres not stated)
23 | – | 720 nM | – | > 10 | CCCC[C@H]1CCN([C@@H](C)C(=O)N[C@@H](Cc2cc(F)cc(F)c2)[C@H](O)[C@H]2Cc3ccccc3CN2)C1=O
24 | 21 nM | 99 nM | – | – | CCCO[C@H]1CN[C@@H]([C@@H](O)[C@H](Cc2cc(F)cc(F)c2)NC(=O)[C@H](CCc2ccccc2)N2CC[C@H](C(C)C)C2=O)C1
